The structures appear in SMILES notation.

The assay deals with Pde4. In words: qPCR of host Pde4 gene expression in Mtb-infected mouse lungs. Type of assay: in vivo, mice. The following applies: 14 days of treatment (28 days postinfection). As to the method:
Total lung RNA (200 ng) was reverse-transcribed using Sprint RT kit (Clontech, CA, USA); 10 ng of cDNA were used for quantitative real-time PCR (qPCR), with Brilliant II SYBR master mix (Agilent Technologies, CA, USA) and gene-specific primers in a Stratagene Mx3005P instrument (Agilent Technologies, CA, USA). ROX was included in each reaction as an internal control. The qPCR assay was performed using four mouse samples in duplicate per group; the data were analyzed using MxPro Software (Agilent Technologies, CA, USA). Transcript levels of Gapdh were used as a reference against the test genes. Fold change in gene expression was calculated using the formula 2^−ΔΔCt, where ΔCt is the difference in threshold cycle (Ct) between the target gene and Gapdh; and ΔΔCt is the […] between untreated and CC-11050-treated samples. Primers were designed based on nucleotide sequences obtained from PrimerBank.^3
On the technique in general: Quantitative PCR measures a nucleic acid by following its amplification.

Consider `CCOc1cc([C@@H](CS(C)(=O)=O)N2Cc3cccc(NC(=O)C4CC4)c3C2=O)ccc1OC` [CC-11050, N-[2-[(1S)-1-(3-ethoxy-4-methoxyphenyl)-2-(methylsulfonyl)ethyl]-2,3-dihydro-3-oxo-1H-isoindol-4-yl]-(9Cl) cyclopropanecarboxamide], for which the “Pde4A expression in lungs versus Mtb-infected untreated” value is given as “No significant change” and the “Pde4C expression in lungs versus Mtb-infected untreated” value is on record as “No significant change”. In addition, where the note is “50 mg/kg, P = 0.0037”, the “Pde4D expression in lungs versus Mtb-infected untreated” value is given as “significantly reduced”. The “Pde4Bi3 (Pde4B isoform 3) expression in lungs versus Mtb-infected untreated” value (50 mg/kg, P = 0.015) is listed as “significantly reduced”.
